How the values were obtained:
[1] = test system: Wistar rats with L-NAME endothelial dysfunction; assay: Correction of endothelial dysfunction simulated by L-NAME in rats; format: in vivo, rat
Method: Wistar rats weighed 250-300 g were divided into 4 groups. The 1st group received distilled water 9 ml/kg/day (every day, gastrointestinal introduction). […] The third group received L-NAME (12.5 mg/kg) in combination with a mixture of C12, C30, and C200 homeopathic dilutions of polyclonal rabbit antibodies to human endothelial NO synthase at 9 ml/kg/day. The 4th group received L-NAME ([…]) in combination with a mixture of C12, C30, and C200 homeopathic dilutions of polyclonal rabbit antibodies to human endothelial NO synthase at 9 ml/kg/day and mixture of C12, C30, C200 homeopathic dilutions of polyclonal rabbit antibodies to a C-terminal fragment of AT1 receptor of angiotensin II at 9 ml/kg/day.
Endothelial dysfunction was simulated by introducing L-NAME at […] in the course of 28 days. On day 29 from the beginning of the experiment, under anesthesia (sodium thiopental at 50 mg/kg), a catheter was inserted into the left carotid artery to register parameter of arterial pressure (AP). Bolus introduction of the pharmacological agent was made into right femoral vein. The following parameters were measured: systolic arterial pressure (SAP), diastolic arterial pressure (DAP), and frequency of heart beat, which were measured in real time by sensor TSD104A measurement apparatus MP100 made by Biopac System, Inc., USA. The following functional probes were used: endothelium-dependent vasodilation (EDV), intra-vein introduction of acetylcholine (AC) in the dose of 40 μg/kg, endothelium-independent vasodilation (EIV) via intravein introduction of sodium nitroprusside at 30 μ/kg.
The degree of endothelial dysfunction was evaluated via the coefficient of endothelial dysfunction as the ratio of the area of the triangle under the trend of reaction of stabilization of arterial pressure (AP) as a response to introduction of nitroprusside to the area of the triangle under the trend of reaction of stabilization of arterial pressure as a response to introduction of acetylcholine.

[2] = test system: NISAG line male rats with hereditary stipulated stress-sensitive arterial hypertension; assay: NISAG rat hypertension model, systolic blood pressure; format: in vivo
Method: Investigations were conducted on 50 NISAG line male rats (weight 300 g, age 4 months) with hereditary stipulated stress-sensitive arterial hypertension, which were divided into 5 groups by 10 animals each.
Two times a week, 2 to 6 hours after administration of ULD antibodies and losartan, systolic blood pressure (SBP) was measured by an indirect method in a tail artery (using a cuff).

[3] = test system: female Wistar rats with chronic heart failure (CHF); assay: Chronic heart failure (CHF) model induced by isadrine in rats: electrocardiogram, rheogram, exercise tolerance; conditions: change in % on Day 28 vs. Day 7, gastric gavage
Method: Study of the efficacy of the combined drug based on ultra-low doses (ULD), i.e. the activated-potentiated solutions as described above, of antibodies to a C-terminal fragment of angiotensin II AT1 receptor and antibodies to endothelial NO synthase (mixture of homeopathic dilutions C12, C30 and C200) in chronic heart failure (CHF) was conducted in 75 female Wistar rats (4-5 months old, weighing 220-250 g).
For chronic heart failure modeling all rats were receiving isadrine (isoproterenol hydrochloride, Sigma, Germany) 80 mg/kg twice with 24-hour interval. Animals (15 per group) were receiving the following drugs by gastric gavage: group 1 —7.5 mL/kg of ULD of antibodies against a C-terminal fragment of angiotensin II AT1 receptor (mixture of homeopathic dilutions C12, C30 and C200), group 2 —7.5 mL/kg of ULD of anti-endothelial NO synthase antibodies (mixture of homeopathic dilutions C12, C30 and C200), group 3 —15 mL/kg of combined drug (mixture of homeopathic dilutions C12, C30 and C200), group 4 —7.5 mL/kg (dose of 10 mg/kg) of losartan as a comparator, group 5 (control)—7.5 mL/kg of distilled water.

[4] = functional probe: Acetyl choline 40 μg/kg, day 29
[5] = functional probe: Initial, day 29, L-NAME 28 days
[6] = functional probe: Sodium Nitroprusside, day 29

SMILES	Vascular reaction observed with EDV with acetyl choline ([1]; area under the curve of restoration of arterial pressure, Acetyl choline probe)	Vascular reaction observed with EIV with sodium nitroprusside ([1]; area under the curve of restoration of arterial pressure, Sodium Nitroprusside probe)	DAP [1, 4] [mm HG]	SAP [1, 4]	DAP [1, 5] [mm HG]	SAP [1, 5]	DAP [1, 6] [mm HG]	SAP [1, 6]	CED (coefficient of endothelial dysfunction) ([1]; ratio of nitroprusside area to acetylcholine area) [relative units]	Δ in comparison with the initial level, in mmHg ([2]; SBP after 28 days vs initial) [mmHg]	% of the initial level ([2]; SBP change after 28 days vs initial) [%]	Initial SBP in mmHg ([2]; before treatment) [mmHg]	SBP after 28 days of medicine administration in mmHg ([2]; per orally once a day for 28 days) [mmHg]	Cardiac output [3] [%]	Heart rate [3] [%]	Systolic volume (by Kubrick) [3] [%]	T-wave amplitude [3] [%]
COC(=O)[C@@H](N)CCCNC(=N)N[N+](=O)[O-] [L-NAME, L-NG-nitroarginine methyl ester]	3700.2 ± 536.9	11922.8 ± 1838.9	64.7 ± 4.3	111.3 ± 7.4 mm, HG	164.2 ± 5.9	204.8 ± 10 mm, HG	61.4 ± 4.4	118.2 ± 9.9 mm, HG	3.5 ± 0.5								
CCCCc1nc(Cl)c(CO)n1Cc1ccc(-c2ccccc2-c2nn[nH]n2)cc1 [Losartan, losartan]										−33	−19	173.5	140.5	55.31	−21.28	64.01	−31.64

From patent publication US20120251584A1, “Combination pharmaceutical composition and methods of treating diseases or conditions associated with the cardiovascular system” (priority 2010, published 2012)
